Reference: EP4647433A1, “SHP2 INHIBITOR AND USES THEREOF” (Kanaph Therapeutics Inc., priority 2023, dated 2024)

Key:
phospho-ERK = phospho-ERK assay (AlphaLisa) in H358 cells; format: cell-based; conditions: Homo sapiens, NCI-H358, 1.5 hours incubation, read-out: pERK assay (IC50)
Protocol: H358 [20,000 cell/well] was contained in 40 µL of the cell culture solution (RPMI, 10% FBS, penicillin, streptomycin) and placed on a 384-well plate. After 24 hours, the serially diluted compound according to the Examples (concentration of minimum 0.13 nM, maximum 10 µM) was contained in 10 µL of the cell culture solution, put into wells containing cells, and incubated in a cell incubator for 1.5 hours. As a positive control group, the selective SHP2 inhibitor, TNO155 (Chemietek, US; concentration ranging from 0.13 nM to 10 µM) was used.
Thereafter, phospho-ERK was labeled using an AlphaLisa system from PerkinElmer according to the manufacturer's instructions, and then fluorescence (680 nm excitation wavelength, 615 nm emission wavelength) values were measured using a Varioskan equipment from Thermo. IC50 values were obtained using Graphad's Prism from the measured values depending on the concentration.
Intracellular SHP2 activity can be confirmed by measuring the degree of phosphorylation of ERK (extracellular signal regulated kinase), which represents Ras/Raf/ERK, a downstream signal pathway of SHP2. Inhibition of ERK phosphorylation by SHP2 inhibitors was confirmed through phospho-ERK analysis, which confirmed that the SHP2 inhibitors of the present disclosure have excellent activity in inhibiting ERK phosphorylation mediated by SHP2.

H358 cells = experiment: Cell viability (3D spheroid, 3D CellTiter-Glo); format: cell-based; conditions: Homo sapiens, NCI-H358, 120 h; H358 spheroids, 5 days treatment
Protocol: Human non-small cell lung cancer cell line H358 cells were purchased from the Korean Cell Line Bank. Cancer cell lines were cultured in the recommended RPMI-1640 medium supplemented with 10% fetal bovine serum (FBS) and 1% penicillin/streptomycin. Monolayer-cultured cancer cell lines were detached by treatment with Trypsin/EDTA, and 100 µL of cell suspension containing 4 x 10^3 cells was each dispensed into SPL3D™ Cell Floater, 96-well round plate, through cell line counting. After culturing for 72 hours to form spheroid, the cells were individually treated with the compounds according to the Examples, which had been serially diluted (minimum 1.5 nM, maximum 10 µM in concentration), and then cultured in a cell incubator for 5 days. To analyze cell viability, the cells were treated with 50 uL of 3D CellTiter-Glo, stirred for 5 minutes at 500 rpm in a plate shaker from Thermo Fisher Scientific, and incubated for 25 minutes at room temperature. Then, the luminescent values were measured using a Varioskan equipment from Thermo Fisher Scientific. IC50 values were obtained using GraphPad's Prism from the measured values depending on the concentration.
In the cell viability assay, when an IC50 value was 50 nM or more, + was indicated, when an IC50 value was 10 nM or more and less than 50 nM, ++ was indicated, and when an IC50 value was less than 10 nM, +++ was indicated.

[1] = Brain-plasma Pharmacokinetics; conditions: male, CD-1 (ICR), mouse, brain/plasma, 20 mg/kg
Protocol: Nine male CD-1 mice (ICR mouse) aged 6 to 9 weeks were treated with the compounds according to the Examples at a concentration of 20 mg/kg. 0.025 mL of blood and brain tissue were collected at 1 hour, 8 hours, and 24 hours post-treatment, respectively. The collected blood was placed in an EDTA-K2 tube, centrifuged at 4°C at 3,200 x g for 10 minutes, and the supernatant plasma was collected. The brain tissue samples were collected immediately after euthanizing the CD-1 mice after blood collection and performing cardiac perfusion with cold saline. After collection, the brain tissues were washed with cold saline, wiped and dried, weighed, and homogenized using a homogenization buffer (15 mM PBS (pH 7.4): MeOH = 2:1) at a ratio of 1:3 (1 g of tissue to 3 mL of buffer, dilution ratio 4). Plasma and homogenized brain tissue samples were each transferred to a polypropylene microcentrifuge tube and stored at -60°C or lower. The concentration of compounds distributed in plasma and brain tissue was analyzed using LC-MS/MS, and the distribution in brain tissue compared to plasma was calculated as follows. Brain-to-plasma ratio = AUC(0-t) brain tissue /AUC(0-t) plasma [formula]
In the Brain-plasma Pharmacokinetics assay, when a brain-to-plasma ratio value was 0.05 or more and less than 0.1, + was indicated, when a brain-to-plasma ratio value was 0.1 or more and less than 0.25, ++ was indicated, and when a brain-to-plasma ratio value was more than 0.25, +++ was indicated.

SHP2 = target: T1, SHP2 (Homo sapiens, UniProt Q06124); experiment: Phosphatase assay (PTPase assay, DiFMUP substrate); format: biochemical; conditions: full length SHP2 100 pM activated with SHP2 activating peptide, DiFMUP 80 µM, 2 hours; read-out: PTPase assay (IC50)
T1 construct: SHP2 (full length, diluted to 100 pM final concentration in reaction buffer, BPS bioscience, US); purchased BPS bioscience, US
T1 sequence (Q06124 1-593): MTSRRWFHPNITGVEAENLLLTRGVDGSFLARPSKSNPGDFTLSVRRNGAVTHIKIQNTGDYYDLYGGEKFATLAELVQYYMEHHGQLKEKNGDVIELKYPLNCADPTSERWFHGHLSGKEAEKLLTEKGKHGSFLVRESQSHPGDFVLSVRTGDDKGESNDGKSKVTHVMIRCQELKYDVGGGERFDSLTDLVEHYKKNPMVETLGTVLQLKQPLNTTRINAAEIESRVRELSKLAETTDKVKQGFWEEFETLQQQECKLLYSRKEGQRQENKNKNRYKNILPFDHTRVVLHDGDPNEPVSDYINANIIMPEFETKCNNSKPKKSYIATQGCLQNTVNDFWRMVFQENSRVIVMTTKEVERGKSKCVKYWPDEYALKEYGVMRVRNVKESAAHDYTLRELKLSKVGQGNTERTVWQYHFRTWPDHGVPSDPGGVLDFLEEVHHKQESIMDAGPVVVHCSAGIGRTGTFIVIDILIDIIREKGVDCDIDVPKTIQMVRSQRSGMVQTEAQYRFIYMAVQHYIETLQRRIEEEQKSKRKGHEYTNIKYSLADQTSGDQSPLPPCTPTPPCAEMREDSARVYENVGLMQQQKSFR
Protocol: IC50 values were measured using 6,8-difluoro-4-methylumbelliferyl phosphate (DiFMUP) as a substrate. The reaction was performed in a 384-well plate, and fluorescence measurement values were obtained using an EnVision plate reader from PerkinElmer.
SHP2 (full length, diluted to 100 pM final concentration in reaction buffer, BPS bioscience, US) was incubated with the SHP2 activating peptide in reaction buffer (60 mM HEPES (pH 7.2), 75 mM NaCl, 75 mM KCl, 1 mM EDTA, 5 mM DTT, 0.05% P-20) for 30 minutes to activate SHP2. After activation, DMSO [1% (V/V) or the compound according to the Examples (concentration ranging from 0.6 nM to 10 µM)] was added. As a positive control group, the selective SHP2 inhibitors SHP099 (6-(4-amino-4-methylpiperidin-1-yl)-3-(2,3-dichlorophenyl)pyrazin-2-amine, FOCUS bioscience, Austrailia; concentration ranging from 0.6 nM to 10 µM) and TNO155 ((3S,4S)-8-(6-amino-5-((2-amino-3-chloropyridin-4-yl)thio)pyrazin-2-yl)-3-methyl-2-oxa-8-azaspiro[4.5]decan-4-amine, Chemietek, US; concentration ranging from 0.6 nM to 10 µM) were used. [drawing 184]
DiFMUP (80 µM) was added to the reaction and incubated for a total of 2 hours to allow for the reaction to proceed. Thereafter, fluorescence (340 nm excitation, 450 nm emission) values were measured. IC50 values were obtained using Graphad's Prism from the measured values depending on the concentration.
In the phosphatase assay (PTPase assay), when an IC50 value was 100 nM or more, + was indicated, when an IC50 value was 3 nM or more and less than 100 nM, ++ was indicated, and when an IC50 value was less than 3 nM, +++ was indicated.

Row | Structure (SMILES) | IC50 (phospho-ERK) | IC50 (H358 cells) | Kp at 24 h [1] | IC50 (SHP2)
1 | Cn1cnc2ccc(Sc3cnc(N4CCC5(CC4)Oc4ccccc4[C@H]5N)cn3)c(Cl)c2c1=O [Example 51, (R)-6-((5-(3-amino-3H-spiro[benzofuran-2,4'-piperidin]-1'-yl)pyrazin-2-yl)thio)-5-chloro-3-methylquinazolin-4(3H)-one] |  |  | > 0.25 | 
2 | CC(C)(O)Cn1cnc2ccc(Sc3cnc(N4CCC5(CC4)Cc4ccccc4[C@H]5N)cn3)c(Cl)c2c1=O [Example 25, (S)-6-((5-(1-amino-1,3-dihydrospiro[indene-2,4'-piperidin]-1'-yl)pyrazin-2-yl)thio)-5-chloro-3-(2-hydroxy-2-methylpropyl)quinazolin-4(3H)-one] | < 45 nM | < 10 nM | 0.05 to 0.1 | < 3 nM
3 | COC(C)(C)Cn1cnc2ccc(Sc3cnc(N4CCC5(CC4)CO[C@@H](C)[C@H]5N)cn3)c(Cl)c2c1=O [Example 18, 6-((5-((3S,4S)-4-amino-3-methyl-2-oxa-8-azaspiro[4.5]decan-8-yl)pyrazin-2-yl)thio)-5-chloro-3-(2-methoxy-2-methylpropyl)quinazolin-4(3H)-one] | < 45 nM | < 10 nM | > 0.25 | < 3 nM
4 | COC(C)(C)Cn1cnc2ccc(Sc3ncc(N4CCC5(CC4)CO[C@@H](C)[C@H]5N)nc3N)c(Cl)c2c1=O [Example 37, 6-((3-amino-5-((3S,4S)-4-amino-3-methyl-2-oxa-8-azaspiro[4.5]decan-8-yl)pyrazin-2-yl)thio)-5-chloro-3-(2-methoxy-2-methylpropyl)quinazolin-4(3H)-one] | 45 to 1500 nM | 10 to 50 nM | 0.05 to 0.1 | 3 to 100 nM
5 | COC(C)(C)Cn1cnc2ccc(Sc3cnc(N4CCC5(CC4)Cc4ncsc4[C@H]5N)cn3)c(Cl)c2c1=O [Example 32, (S)-6-((5-(6-amino-4,6-dihydrospiro[cyclopenta[d]thiazole-5,4'-piperidin]-1'-yl)pyrazin-2-yl)thio)-5-chloro-3-(2-methoxy-2-methylpropyl)quinazolin-4(3H)-one] | < 45 nM | < 10 nM | 0.1 to 0.25 | 
6 | N[C@@H]1c2ccccc2OC12CCN(c1cnc(Sc3ccc4ncn(-c5ccccc5)c(=O)c4c3Cl)cn1)CC2 [Example 52, (R)-6-((5-(3-amino-3H-spiro[benzofuran-2,4'-piperidin]-1'-yl)pyrazin-2-yl)thio)-5-chloro-3-phenylquinazolin-4(3H)-one] |  |  | > 0.25 | 
7 | COC(C)(C)Cn1cnc2ccc(Sc3cnc(N4CCC5(CC4)Cc4ccccc4[C@H]5N)nn3)c(Cl)c2c1=O [Example 34, (S)-6-((3-(1-amino-1,3-dihydrospiro[indene-2,4'-piperidin]-1'-yl)-1,2,4-triazin-6-yl)thio)-5-chloro-3-(2-methoxy-2-methylpropyl)quinazolin-4(3H)-one] |  | < 10 nM | 0.1 to 0.25 | < 3 nM
8 | N[C@@H]1c2ccccc2CC12CCN(c1cnc(Sc3ccc4ncn(-c5cccnc5)c(=O)c4c3Cl)cn1)CC2 [Example 31, (S)-6-((5-(1-amino-1,3-dihydrospiro[indene-2,4'-piperidin]-1'-yl)pyrazin-2-yl)thio)-5-chloro-3-(pyridin-3-yl)quinazolin-4(3H)-one] | 45 to 1500 nM | < 10 nM | 0.1 to 0.25 | 
9 | C[C@@H]1OCC2(CCN(c3cnc(Sc4ccc5ccn(C)c(=O)c5c4Cl)cn3)CC2)[C@@H]1N [Example 15, 7-((5-((3S,4S)-4-amino-3-methyl-2-oxa-8-azaspiro[4.5]decan-8-yl)pyrazin-2-yl)thio)-8-chloro-2-methylisoquinolin-1(2H)-one] |  | 10 to 50 nM | 0.05 to 0.1 | < 3 nM

More lines, now with the values ahead:

Row | IC50 (phospho-ERK) | IC50 (H358 cells) | Kp at 24 h [1] | IC50 (SHP2) | Structure (SMILES)
10 | < 45 nM | < 10 nM | > 0.25 | < 3 nM | COC(C)(C)Cn1cnc2ccc(Sc3cnc(N4CCC5(CC4)Cc4ccccc4[C@H]5N)cn3)c(Cl)c2c1=O [Example 27, (S)-6-((5-(1-amino-1,3-dihydrospiro[indene-2,4'-piperidin]-1'-yl)pyrazin-2-yl)thio)-5-chloro-3-(2-methoxy-2-methylpropyl)quinazolin-4(3H)-one]
11 | 45 to 1500 nM | 10 to 50 nM | > 0.25 | < 3 nM | Cn1ccc2ccc(Sc3cnc(N4CCC5(CC4)Cc4ccccc4[C@H]5N)cn3)c(Cl)c2c1=O [Example 41, (S)-7-((5-(1-amino-1,3-dihydrospiro[indene-2,4'-piperidin]-1'-yl)pyrazin-2-yl)thio)-8-chloro-2-methylisoquinolin-1(2H)-one]
12 | < 45 nM | < 10 nM | 0.1 to 0.25 | < 3 nM | Cn1ccc2ccc(Sc3ncc(N4CCC5(CC4)Cc4ccccc4[C@H]5N)nc3N)c(Cl)c2c1=O [Example 47, (S)-7-((3-amino-5-(1-amino-1,3-dihydrospiro[indene-2,4'-piperidin]-1'-yl)pyrazin-2-yl)thio)-8-chloro-2-methylisoquinolin-1(2H)-one]
13 | < 45 nM | < 10 nM | 0.05 to 0.1 | < 3 nM | COC(C)(C)Cn1cnc2ccc(Sc3ncc(N4CCC5(CC4)Cc4ccccc4[C@H]5N)nc3N)c(Cl)c2c1=O [Example 36, (S)-6-((3-amino-5-(1-amino-1,3-dihydrospiro[indene-2,4'-piperidin]-1'-yl)pyrazin-2-yl)thio)-5-chloro-3-(2-methoxy-2-methylpropyl)quinazolin-4(3H)-one]
14 | < 45 nM | < 10 nM | 0.1 to 0.25 | < 3 nM | COC(C)Cn1ccc2ccc(Sc3ncc(N4CCC5(CC4)Cc4ccccc4[C@H]5N)nc3N)c(Cl)c2c1=O (stereo partly shown) [Example 49]
